In patent publication US20240209028A1, “CNP COMPOUNDS” (priority 2022, published 2024):
Starred links: 1 amine or outer side, 2 acyl side, 3 side chain; linkers in the order of their positions; H or OH if unused. Positions of bridges follow the written chain, without caps; N, C: chain ends. Residues, ends and D or L forms follow the SMILES beside them. *: point of attachment. C18 diacid = O=C(O)CCCCCCCCCCCCCCCCC(=O)*; γGlu = O=C(O)[C@H](CCC(=O)[*:2])N[*:1]; AEEA = NCCOCCOCC(=O)O

Assay: Thioflavin T (ThT) assay: lagtime and peptide recovery
Format: physicochemical
Details: ThT assay, pH 6.5, 37° C.; assay terminated after 45 hours
Description: The ThT assay was used to evaluate physical stability of the CNP compounds and their suitability for liquid formulation. Low physical stability of peptides may lead to amyloid fibril formation, which is observed as well-ordered, thread-like macromolecular structures in the sample eventually resulting in gel formation. This has traditionally been tested by visual inspection of the sample. However, that kind of measurement is very subjective and depending on the observer. Therefore, the application of a small molecule indicator probe is much more advantageous. Thioflavin T (ThT) is such a probe and has a distinct fluorescence signature when binding to fibrils [Naiki et al. (1989) Anal. Biochem. 177, 244-249; LeVine (1999) Methods. Enzymol. […], 274-284].
Procedure: Thioflavin T was added to the supernatant samples from Example 5 (pH 4.0 and 6.5) using an aqueous ThT stock solution to a final concentration of about 1 μM in the samples. Sample aliquots of 150 μL were placed in a 96 well microtiter plate (Packard OptiPlate™-96, white polystyrene). Usually, two to three replicas of each sample were applied to the plate. The plate was sealed and placed in a fluorescence plate reader (Fluoroskan Ascent FL) and incubated at 37° C. with orbital shaking (960 rpm; 1 mm amplitude). Fluorescence measurements were performed every 20 minutes using excitation through a 444 nm filter and measurement of emission through a 485 nm filter. Between each measurement, the plate was shaken and heated as described above and the assay was terminated after 45 hours. Fluorescence measurements for each microtiter plate well were plotted against time and the lag-time (time until an increase in ThT fluorescence was observed) was estimated.
To assess loss of dissolved peptide following 45h incubation, peptide recovery was measured as the ratio between total peak area after incubation vs. before incubation using the RP-UPLC method described below.
Measurement of LagTime and Peptide recovery % using RP-UPLC: RP-UPLC was conducted using an Acquity UPLC BEH C18 1.7 μm (2.1×30 mm) Waters column (Eluent A: 0.1% v/v % TFA in water; Eluent B: 0.1% v/v TFA in acetonitrile/water 4:1) with gradient elution (0 min: 95% A; 2 min: 20% A; 2.3 min: 20% A; 2.4 min: 95% A; 9 min: 95% A) in a flow rate of 0.9 mL/min and a column temperature of 30° C. UV-detection at 215 nm was used to assess the total peptide area.
Samples at pH 4.0 were prepared as described in Example 5 and subjected to the ThT assay as described above.
Samples at pH 6.5 were prepared as described in Example 5 and subjected to the ThT assay as described above.

Going from CC[C@H](C)[C@@H]1NC(=O)[C@H](CCCNC(=N)N)NC(=O)[C@H](CC(=O)O)NC(=O)[C@H](CC(C)C)NC(=O)[C@@H]2CCCN2C(=O)[C@H](CC(C)C)NC(=O)CNC(=O)[C@H](Cc2ccccc2)NC(=O)[C@@H](NC(=O)CNC(=O)[C@H](CO)NC(=O)[C@H](CO)NC(=O)[C@@H](NC(=O)CNC(=O)[C@@H](NC(=O)[C@H](CCCCN)NC(=O)[C@H](CCC(N)=O)NC(=O)[C@H](C)NC(=O)CNC(=O)[C@H](Cc2c[nH]cn2)NC(=O)[C@H](Cc2ccc(O)cc2)NC(=O)COCCOCCNC(=O)COCCOCCNC(=O)CC[C@H](NC(=O)CCCCCCCCCCCCCCCCC(=O)O)C(=O)O)[C@@H](C)O)C(C)C)CSSC[C@@H](C(=O)O)NC(=O)CNC(=O)[C@H](CC(C)C)NC(=O)CNC(=O)[C@H](CO)NC(=O)[C@H](CC(C)C)NC(=O)[C@H](CO)NC(=O)CNC1=O [compound 1303] ({C18 diacid-γGlu-AEEA-AEEA}-YHGAQKTGVSSGCFGLPLDRIGSLSGLGC-OH; disulfide 13-29) to CC[C@H](C)[C@@H]1NC(=O)[C@H](CCCNC(=N)N)NC(=O)[C@H](CC(=O)O)NC(=O)[C@H](CC(C)C)NC(=O)[C@@H]2CCCN2C(=O)[C@H](CC(C)C)NC(=O)CNC(=O)[C@H](Cc2ccccc2)NC(=O)[C@@H](NC(=O)CNC(=O)[C@H](CO)NC(=O)[C@H](CO)NC(=O)[C@@H](NC(=O)CNC(=O)[C@@H](NC(=O)[C@H](CCCCN)NC(=O)[C@H](CCC(N)=O)NC(=O)[C@H](C)NC(=O)CNC(=O)[C@H](Cc2c[nH]cn2)NC(=O)[C@H](Cc2ccc(O)cc2)NC(=O)COCCOCCNC(=O)COCCOCCNC(=O)COCCOCCNC(=O)CC[C@H](NC(=O)CCCCCCCCCCCCCCCCC(=O)O)C(=O)O)[C@@H](C)O)C(C)C)CSSC[C@@H](C(=O)O)NC(=O)CNC(=O)[C@H](CC(C)C)NC(=O)CNC(=O)[C@H](CO)NC(=O)[C@H](CC(C)C)NC(=O)[C@H](CO)NC(=O)CNC1=O [compound 1352] ({C18 diacid-γGlu-AEEA-AEEA-AEEA}-YHGAQKTGVSSGCFGLPLDRIGSLSGLGC-OH; disulfide 13-29), the “LagTime (h) at pH 6.5” value rises from 5 h to 23 h.

CC[C@H](C)[C@@H]1NC(=O)[C@H](CCCNC(=N)N)NC(=O)[C@H](CC(=O)O)NC(=O)[C@H](CC(C)C)NC(=O)[C@@H]2CCCN2C(=O)[C@H](CC(C)C)NC(=O)CNC(=O)[C@H](Cc2ccccc2)NC(=O)[C@@H](NC(=O)CNC(=O)[C@H](CO)NC(=O)[C@H](CO)NC(=O)[C@H](CC(C)C)NC(=O)CNC(=O)[C@@H](NC(=O)[C@H](Cc2c[nH]cn2)NC(=O)[C@H](CCC(N)=O)NC(=O)[C@H](C)NC(=O)CNC(=O)[C@H](Cc2c[nH]cn2)NC(=O)[C@H](Cc2ccc(O)cc2)NC(=O)COCCOCCNC(=O)COCCOCCNC(=O)CC[C@H](NC(=O)CCCCCCCCCCCCCCCCC(=O)O)C(=O)O)[C@@H](C)O)CSSC[C@@H](C(=O)O)NC(=O)CNC(=O)[C@H](CC(C)C)NC(=O)CNC(=O)[C@H](CO)NC(=O)[C@H](CC(C)C)NC(=O)[C@H](CO)NC(=O)CNC1=O [compound 1304] ({C18 diacid-γGlu-AEEA-AEEA}-YHGAQHTGLSSGCFGLPLDRIGSLSGLGC-OH; disulfide 13-29) and CC[C@H](C)[C@@H]1NC(=O)[C@H](CCCNC(=N)N)NC(=O)[C@H](CC(=O)O)NC(=O)[C@H](CC(C)C)NC(=O)[C@@H]2CCCN2C(=O)[C@H](CC(C)C)NC(=O)CNC(=O)[C@H](Cc2ccccc2)NC(=O)[C@@H](NC(=O)CNC(=O)[C@H](CO)NC(=O)[C@H](CO)NC(=O)[C@H](CC(C)C)NC(=O)CNC(=O)[C@H](CCCCN)NC(=O)[C@H](CCCCN)NC(=O)[C@H](CCC(N)=O)NC(=O)[C@H](C)NC(=O)CNC(=O)[C@H](Cc2c[nH]cn2)NC(=O)[C@H](CCC(=O)O)NC(=O)COCCOCCNC(=O)COCCOCCNC(=O)CC[C@H](NC(=O)CCCCCCCCCCCCCCCCC(=O)O)C(=O)O)CSSC[C@@H](C(=O)O)NC(=O)CNC(=O)[C@H](CC(C)C)NC(=O)CNC(=O)[C@H](CO)NC(=O)[C@H](CC(C)C)NC(=O)[C@H](CO)NC(=O)CNC1=O [compound 1310] ({C18 diacid-γGlu-AEEA-AEEA}-EHGAQKKGLSSGCFGLPLDRIGSLSGLGC-OH; disulfide 13-29) are the same in “LagTime (h) at pH 6.5” value: 45 h for the first, 45 h for the second.

Going from CC[C@H](C)[C@@H]1NC(=O)[C@H](CCCNC(=N)N)NC(=O)[C@H](CC(=O)O)NC(=O)[C@H](CC(C)C)NC(=O)[C@@H]2CCCN2C(=O)[C@H](CC(C)C)NC(=O)CNC(=O)[C@H](Cc2ccccc2)NC(=O)[C@@H](NC(=O)CNC(=O)[C@H](CCCCN)NC(=O)[C@H](CO)NC(=O)[C@H](CC(C)C)NC(=O)CNC(=O)[C@H](CCCCN)NC(=O)[C@H](CCCCN)NC(=O)[C@H](CCC(N)=O)NC(=O)[C@H](C)NC(=O)CNC(=O)[C@H](CCC(=O)O)NC(=O)[C@H](Cc2ccc(O)cc2)NC(=O)COCCOCCNC(=O)COCCOCCNC(=O)COCCOCCNC(=O)COCCOCCNC(=O)CC[C@H](NC(=O)CCCCCCCCCCCCCCCCC(=O)O)C(=O)O)CSSC[C@@H](C(=O)O)NC(=O)CNC(=O)[C@H](CC(C)C)NC(=O)CNC(=O)[C@H](CO)NC(=O)[C@H](CC(C)C)NC(=O)[C@H](CO)NC(=O)CNC1=O [compound 1375] ({C18 diacid-γGlu-AEEA-AEEA-AEEA-AEEA}-YEGAQKKGLSKGCFGLPLDRIGSLSGLGC-OH; disulfide 13-29; C-terminus assumed) to CC[C@H](C)[C@@H]1NC(=O)[C@H](CCCNC(=N)N)NC(=O)[C@H](CC(=O)O)NC(=O)[C@H](CC(C)C)NC(=O)[C@@H]2CCCN2C(=O)[C@H](CC(C)C)NC(=O)CNC(=O)[C@H](Cc2ccccc2)NC(=O)[C@@H](NC(=O)CNC(=O)[C@H](CO)NC(=O)[C@H](CO)NC(=O)[C@H](CC(C)C)NC(=O)CNC(=O)[C@H](CCCCN)NC(=O)[C@H](CCCCN)NC(=O)[C@H](CCC(N)=O)NC(=O)[C@H](C)NC(=O)CNC(=O)[C@H](CCC(=O)O)NC(=O)[C@H](Cc2ccc(O)cc2)NC(=O)CNC(=O)CNC(=O)CNC(=O)COCCOCCNC(=O)COCCOCCNC(=O)CC[C@H](NC(=O)CCCCCCCCCCCCCCCCC(=O)O)C(=O)O)CSSC[C@@H](C(=O)O)NC(=O)CNC(=O)[C@H](CC(C)C)NC(=O)CNC(=O)[C@H](CO)NC(=O)[C@H](CC(C)C)NC(=O)[C@H](CO)NC(=O)CNC1=O [compound 1378] ({C18 diacid-γGlu-AEEA-AEEA}-GGGYEGAQKKGLSSGCFGLPLDRIGSLSGLGC-OH; disulfide 16-32), the “LagTime (h) at pH 6.5” value falls from 45 h to 2.5 h.

Same assay, conditions: ThT, 37° C., shaking; assay terminated after 45 hours

CC[C@H](C)[C@@H]1NC(=O)[C@H](CCCNC(=N)N)NC(=O)[C@H](CC(=O)O)NC(=O)[C@H](CC(C)C)NC(=O)[C@@H]2CCCN2C(=O)[C@H](CC(C)C)NC(=O)CNC(=O)[C@H](Cc2ccccc2)NC(=O)[C@@H](NC(=O)CNC(=O)[C@H](CO)NC(=O)[C@H](CO)NC(=O)[C@@H](NC(=O)CNC(=O)[C@@H](NC(=O)[C@H](Cc2c[nH]cn2)NC(=O)[C@H](CCC(N)=O)NC(=O)[C@H](C)NC(=O)CNC(=O)[C@H](Cc2c[nH]cn2)NC(=O)[C@H](Cc2ccc(O)cc2)NC(=O)[C@H](CCCCN)NC(=O)[C@H](CCCNC(=N)N)NC(=O)[C@H](C)NC(=O)COCCOCCNC(=O)COCCOCCNC(=O)CC[C@H](NC(=O)CCCCCCCCCCCCCCCCC(=O)O)C(=O)O)[C@@H](C)O)C(C)C)CSSC[C@@H](C(=O)O)NC(=O)CNC(=O)[C@H](CC(C)C)NC(=O)CNC(=O)[C@H](CO)NC(=O)[C@H](CC(C)C)NC(=O)[C@H](CO)NC(=O)CNC1=O [compound 1351] ({C18 diacid-γGlu-AEEA-AEEA}-ARKYHGAQHTGVSSGCFGLPLDRIGSLSGLGC-OH; disulfide 16-32) and CC[C@H](C)[C@@H]1NC(=O)[C@H](CCCNC(=N)N)NC(=O)[C@H](CC(=O)O)NC(=O)[C@H](CC(C)C)NC(=O)[C@@H]2CCCN2C(=O)[C@H](CC(C)C)NC(=O)CNC(=O)[C@H](Cc2ccccc2)NC(=O)[C@@H](NC(=O)CNC(=O)[C@H](CCC(N)=O)NC(=O)[C@H](CO)NC(=O)[C@H](CO)NC(=O)CNC(=O)[C@H](Cc2c[nH]cn2)NC(=O)[C@H](Cc2c[nH]cn2)NC(=O)[C@H](CCC(N)=O)NC(=O)[C@H](C)NC(=O)CNC(=O)[C@H](Cc2c[nH]cn2)NC(=O)[C@H](Cc2ccc(O)cc2)NC(=O)[C@H](CCCCN)NC(=O)[C@H](Cc2c[nH]cn2)NC(=O)[C@H](C)NC(=O)[C@H](CCC(N)=O)NC(=O)[C@@H]2CCCN2C(=O)[C@H](Cc2c[nH]cn2)NC(=O)[C@H](CCC(=O)O)NC(=O)[C@H](CCC(N)=O)NC(=O)COCCOCCNC(=O)COCCOCCNC(=O)CC[C@H](NC(=O)CCCCCCCCCCCCCCCCC(=O)O)C(=O)O)CSSC[C@@H](C(=O)O)NC(=O)CNC(=O)[C@H](CC(C)C)NC(=O)CNC(=O)[C@H](CO)NC(=O)[C@H](CC(C)C)NC(=O)[C@H](CO)NC(=O)CNC1=O [compound 1381] ({C18 diacid-γGlu-AEEA-AEEA}-QEHPQAHKYHGAQHHGSSQGCFGLPLDRIGSLSGLGC-OH; disulfide 21-37) are the same in “LagTime (h) at pH 4.0” value: 45 h for the first, 45 h for the second.
